What was measured:
[1] = system: NLRP1; assay: NLRP1-mediated inflammasome activity, secreted IL-1β ELISA in immortalized BMDMs (L18-MDP); format: cell-based, murine; conditions: for NLRP1 (L18-MDP)-induced inflammasome activation: BT032 20, 100 μM, MCC950 5 μM
[2] = target: T1, NLRP3 inflammasome (Mus musculus, UniProt Q8R4B8); assay: IL-1β secretion (ELISA) in LPS-primed iBMDMs stimulated with silica or nigericin; format: cell-based, murine; conditions: LPS 100 ng/mL primed iBMDMs; silica 250 μg/mL or nigericin 6 μM; compound 300, 150, 30, 3 μM
T1 construct: Immortalized wild-type C57BL/6 bone-marrow derived macrophages (iBMDMs); endogenous in cells; host or cells: immortalized wild-type C57BL/6 bone-marrow derived macrophages (iBMDMs), LPS-primed
Method: In vitro stimulation of murine macrophages. Immortalized wild-type C57BL/6 bone-marrow derived macrophages (iBMDMs) were grown in DMEM supplemented with 10% heat inactivated FBS and 2 mM glutamine. iBMDMs were seeded in 96-well plates 24 hours prior incubation with lipopolysaccharide (LPS; 100 ng/mL) for 3 hours. Cells were then incubated with a control probenecid compound (probenecid dissolved in DMSO (Prob/D), probenecid dissolved in PBS (Prob/P)) or one of the probenecid analogs of the present technology (BT032, BT132, BT133, BT134, BT135, BT136, BT137, BT138, BT139, or BT140) at concentrations of 300 μM, 150 μM, 30 μM, or 3 μM 1 hour prior to stimulation with NLRP3 inflammasome activators, silica (250 μg/mL) or nigericin (6 μM). After an additional 6 hours, cell supernatants were collected and levels of IL-1β were quantified by ELISA. These experiments were run in triplicate three times.

[3] = system: NLRP1; assay: NLRP1 (L18-MDP)-induced inflammasome activation in immortalized BMDMs, secreted IL-1β ELISA (Example 10); format: cell-based; conditions: 20, 100, 350 μM; L18-MDP 100 μg/mL, 16 hours
[4] = target: NLRP3 (Mus musculus, UniProt Q8R4B8); assay: NLRP3-mediated inflammasome activity, secreted IL-1β ELISA in LPS-primed immortalized BMDMs (nigericin, MSU, silica)
[5] = target: T2, AIM2 (Mus musculus, UniProt Q91VJ1); assay: AIM2 (poly dA:dT)-mediated inflammasome activation, secreted IL-1β ELISA in immortalized BMDMs; format: cell-based, murine; conditions: BT032 20, 100 μM
T2 sequence (Q91VJ1 1-354): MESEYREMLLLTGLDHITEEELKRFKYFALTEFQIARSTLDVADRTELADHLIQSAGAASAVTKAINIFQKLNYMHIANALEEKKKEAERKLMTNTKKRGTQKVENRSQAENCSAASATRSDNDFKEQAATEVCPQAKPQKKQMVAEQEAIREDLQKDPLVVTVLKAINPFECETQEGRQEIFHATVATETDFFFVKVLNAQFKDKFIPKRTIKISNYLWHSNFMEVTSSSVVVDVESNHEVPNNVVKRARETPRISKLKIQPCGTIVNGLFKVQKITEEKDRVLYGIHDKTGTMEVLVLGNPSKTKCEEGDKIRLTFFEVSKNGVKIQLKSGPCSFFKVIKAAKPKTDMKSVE

[6] = system: HKx31 (H3N2) influenza A virus; format: in vivo, C57BL/6 mice
[7] = system: non-canonical inflammasome; assay: Non-canonical inflammasome activity (LPS (B4)), secreted IL-1β ELISA in immortalized BMDMs; format: cell-based, murine; conditions: BT032 20, 100 μM
[8] = target: NLRC4 (Mus musculus, UniProt Q3UP24); assay: NLRC4 (Flagellin)-mediated inflammasome activation, secreted IL-1β ELISA in immortalized BMDMs; format: cell-based, murine; conditions: BT032 20, 100 μM
[9] = system: ASC specks (NLRP3 inflammasome complex); assay: Nigericin-induced ASC speck formation in ASC-cerulean/NLRP3 macrophages; format: cell-based; conditions: 350 μM, 60 mins before nigericin 3 μM for 90 mins
[10] = target: T3, NLRP1 (Homo sapiens, UniProt Q9C000); assay: poly I:C NLRP1 activation in primary human bronchial epithelial cells, secreted IL-1β ELISA; format: cell-based; conditions: 20, 100, 350 μM
T3 construct: Primary bronchial epithelial cells (PBEC) were obtained from bronchial brushings; endogenous in cells; host or cells: primary human bronchial epithelial cells (PBEC) from bronchial brushings
T3 sequence (Q9C000 1-1212 limits assumed): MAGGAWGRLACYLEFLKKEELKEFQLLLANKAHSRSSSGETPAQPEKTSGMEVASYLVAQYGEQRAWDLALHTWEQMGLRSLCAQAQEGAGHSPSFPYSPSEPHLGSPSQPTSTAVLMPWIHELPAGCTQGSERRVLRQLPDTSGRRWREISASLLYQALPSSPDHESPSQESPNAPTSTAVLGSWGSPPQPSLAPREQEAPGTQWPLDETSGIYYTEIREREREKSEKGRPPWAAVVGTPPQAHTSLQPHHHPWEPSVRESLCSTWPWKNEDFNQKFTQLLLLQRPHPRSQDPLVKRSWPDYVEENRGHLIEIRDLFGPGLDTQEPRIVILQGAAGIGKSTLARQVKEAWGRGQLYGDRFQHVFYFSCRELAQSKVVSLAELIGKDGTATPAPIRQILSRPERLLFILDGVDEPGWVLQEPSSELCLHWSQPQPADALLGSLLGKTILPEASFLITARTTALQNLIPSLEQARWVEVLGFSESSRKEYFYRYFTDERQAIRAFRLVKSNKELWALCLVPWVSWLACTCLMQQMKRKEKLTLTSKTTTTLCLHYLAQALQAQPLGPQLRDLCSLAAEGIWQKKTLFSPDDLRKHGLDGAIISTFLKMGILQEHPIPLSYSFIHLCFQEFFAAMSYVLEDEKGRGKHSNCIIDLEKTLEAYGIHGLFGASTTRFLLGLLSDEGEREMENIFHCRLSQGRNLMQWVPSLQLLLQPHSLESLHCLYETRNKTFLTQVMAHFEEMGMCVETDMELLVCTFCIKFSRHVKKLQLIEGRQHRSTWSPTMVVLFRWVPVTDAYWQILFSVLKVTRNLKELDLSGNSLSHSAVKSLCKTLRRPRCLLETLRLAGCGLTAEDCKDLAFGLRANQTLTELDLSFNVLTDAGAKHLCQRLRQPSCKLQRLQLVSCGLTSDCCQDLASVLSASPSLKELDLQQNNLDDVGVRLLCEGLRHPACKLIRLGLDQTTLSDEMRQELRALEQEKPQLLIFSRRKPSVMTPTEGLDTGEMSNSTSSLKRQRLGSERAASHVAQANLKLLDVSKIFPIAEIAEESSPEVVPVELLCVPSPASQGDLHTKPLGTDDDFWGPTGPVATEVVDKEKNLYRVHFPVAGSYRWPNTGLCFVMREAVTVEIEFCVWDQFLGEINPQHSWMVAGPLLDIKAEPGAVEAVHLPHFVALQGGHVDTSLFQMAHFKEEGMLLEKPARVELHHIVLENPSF
T3 sequence (Q9C000 1213-1473 limits assumed): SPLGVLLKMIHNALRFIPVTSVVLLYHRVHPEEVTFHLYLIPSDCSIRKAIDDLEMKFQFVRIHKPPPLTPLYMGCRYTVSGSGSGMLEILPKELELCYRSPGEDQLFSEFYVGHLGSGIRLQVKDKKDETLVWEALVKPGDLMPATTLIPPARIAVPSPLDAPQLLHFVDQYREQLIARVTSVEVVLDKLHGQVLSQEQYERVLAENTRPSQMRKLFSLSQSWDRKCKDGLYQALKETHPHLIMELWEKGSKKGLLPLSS
Method: Methods. Primary bronchial epithelial cells (PBEC) were obtained from bronchial brushings and cultured under submerged conditions on collagen-coated flasks in supplemented bronchial epithelial growth medium. PBECs were seeded at 2.5×10^5/ml cells in collagen-coated 96 well plates overnight.

Sequence of NLRP3 (Q8R4B8 whole entry): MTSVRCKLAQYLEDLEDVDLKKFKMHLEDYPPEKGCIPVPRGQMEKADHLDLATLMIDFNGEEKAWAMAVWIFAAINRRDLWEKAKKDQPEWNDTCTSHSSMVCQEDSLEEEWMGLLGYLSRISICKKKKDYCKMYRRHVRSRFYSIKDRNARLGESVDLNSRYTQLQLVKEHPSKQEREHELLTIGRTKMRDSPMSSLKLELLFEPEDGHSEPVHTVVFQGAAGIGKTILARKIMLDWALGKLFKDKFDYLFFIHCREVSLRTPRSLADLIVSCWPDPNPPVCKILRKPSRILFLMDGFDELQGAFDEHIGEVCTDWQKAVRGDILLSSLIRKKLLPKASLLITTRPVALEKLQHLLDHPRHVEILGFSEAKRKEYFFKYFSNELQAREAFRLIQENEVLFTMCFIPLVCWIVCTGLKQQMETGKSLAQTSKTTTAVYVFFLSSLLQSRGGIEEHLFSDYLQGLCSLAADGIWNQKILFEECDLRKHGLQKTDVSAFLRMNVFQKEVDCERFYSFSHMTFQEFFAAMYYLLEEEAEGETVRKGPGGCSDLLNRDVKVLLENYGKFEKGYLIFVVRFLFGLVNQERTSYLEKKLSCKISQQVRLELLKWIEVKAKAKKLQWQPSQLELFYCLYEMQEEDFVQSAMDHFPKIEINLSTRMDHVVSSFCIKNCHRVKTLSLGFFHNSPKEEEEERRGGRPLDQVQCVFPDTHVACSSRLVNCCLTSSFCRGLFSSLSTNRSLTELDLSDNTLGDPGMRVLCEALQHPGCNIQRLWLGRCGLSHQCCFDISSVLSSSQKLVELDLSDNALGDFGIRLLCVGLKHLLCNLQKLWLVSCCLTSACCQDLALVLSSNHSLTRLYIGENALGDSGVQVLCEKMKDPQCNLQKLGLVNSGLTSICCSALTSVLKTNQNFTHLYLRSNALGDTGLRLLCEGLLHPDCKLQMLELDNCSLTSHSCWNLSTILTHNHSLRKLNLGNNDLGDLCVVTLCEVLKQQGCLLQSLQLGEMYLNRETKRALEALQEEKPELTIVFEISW
T1 sequence (Q8R4B8 whole entry): as above
Sequence of NLRC4 (Q3UP24 whole entry): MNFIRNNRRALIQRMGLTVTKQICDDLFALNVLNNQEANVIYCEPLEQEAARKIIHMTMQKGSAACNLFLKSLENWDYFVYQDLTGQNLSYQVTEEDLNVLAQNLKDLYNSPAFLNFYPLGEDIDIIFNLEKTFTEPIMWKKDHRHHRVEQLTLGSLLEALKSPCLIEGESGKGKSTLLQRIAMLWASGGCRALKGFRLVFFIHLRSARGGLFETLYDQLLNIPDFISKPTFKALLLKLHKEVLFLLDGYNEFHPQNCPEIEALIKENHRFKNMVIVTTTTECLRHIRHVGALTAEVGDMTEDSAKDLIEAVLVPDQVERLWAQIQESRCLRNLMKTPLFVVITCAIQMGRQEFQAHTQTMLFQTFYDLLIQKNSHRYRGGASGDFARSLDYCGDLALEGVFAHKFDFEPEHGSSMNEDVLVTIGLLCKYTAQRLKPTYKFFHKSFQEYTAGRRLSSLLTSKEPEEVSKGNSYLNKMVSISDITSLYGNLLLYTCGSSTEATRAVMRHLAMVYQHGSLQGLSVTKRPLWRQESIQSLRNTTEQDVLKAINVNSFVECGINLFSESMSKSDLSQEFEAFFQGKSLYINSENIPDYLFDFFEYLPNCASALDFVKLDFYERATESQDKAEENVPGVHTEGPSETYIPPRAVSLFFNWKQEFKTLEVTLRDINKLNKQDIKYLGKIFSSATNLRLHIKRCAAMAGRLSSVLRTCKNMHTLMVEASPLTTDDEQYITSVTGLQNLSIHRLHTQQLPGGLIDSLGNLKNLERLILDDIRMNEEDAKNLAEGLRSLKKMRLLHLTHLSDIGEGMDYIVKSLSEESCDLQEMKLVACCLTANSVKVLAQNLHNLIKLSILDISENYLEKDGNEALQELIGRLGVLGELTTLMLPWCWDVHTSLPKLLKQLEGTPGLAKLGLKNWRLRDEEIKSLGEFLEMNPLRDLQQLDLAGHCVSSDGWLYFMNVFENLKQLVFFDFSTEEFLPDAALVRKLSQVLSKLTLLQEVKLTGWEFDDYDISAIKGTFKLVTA

Structure (SMILES): CC(C)(O)c1coc(S(=O)(=O)NC(=O)Nc2c3c(cc4c2CCC4)CCC3)c1 [MCC950, reference compound]
- NLRP1 (L18-MDP)-induced inflammasome activation [1]: no impact upon NLRP1 activity

Structure (SMILES): CCCN(CCC)S(=O)(=O)c1ccc(-c2nc(CCCC(=O)O)cs2)cc1 [BT136, 4-(2-(4-(N,N-dipropylsulfamoyl)phenyl)thiazol-4-yl)butanoic acid]
- potency in reducing IL-1β secretion compared with control probenecid compounds [2]: more potent than the control probenecid compounds
- NLRP1 (L18-MDP)-induced inflammasome activation (secreted IL-1β) [3]: dose-dependently inhibited

Structure (SMILES): CCCN(CCC)S(=O)(=O)c1ccc(-c2ccc(CCCC(=O)O)cc2)cc1 [BT032, 4-(4′-(N,N-dipropylsulfamoyl)-[1,1′-biphenyl]-4-yl)butanoic acid]
- IC50 [4]: 30 µM
- NLRP3 (Nigericin, MSU, Silica)-induced inflammasome activation ([4]; BT032 20, 100 μM, MCC950 5 μM, secreted IL-1β): dose-dependently inhibited
- AIM2 (poly dA:dT)-mediated inflammasome activation [5]: no effect
- NLRP1 (L18-MDP)-induced inflammasome activation [1]: dose-dependently inhibited
- IC50 ([1]; L18-MDP 100 μg/mL, drug 3.9-350 μM, read-out: IC50, inhibition of NLRP1-mediated inflammasome activity): 30 µM
- survival of mice ([6]; […], survival without treatment 5 days): 7-9 days post-infection
- pulmonary inflammation and cellular infiltrates in BAL (total cells, alveolar macrophages, neutrophils, Ly6C+ macrophages, dendritic cells, MCP-1) ([6]; mouse, in vivo): reduce hyperinflammation in the airways
- non-canonical inflammasome activity (LPS (B4)) [7]: limited impact
- NLRC4 (Flagellin)-mediated inflammasome activation [8]: no effect
- potency in reducing IL-1β secretion compared with control probenecid compounds [2]: more potent than the control probenecid compounds
- ASC specks in cells [9]: substantially reduced ASC specks
- poly I:C NLRP1 activation (IL-1β secretion) [10]: inhibited poly I:C NLRP1 activation
- NLRP1 (L18-MDP)-induced inflammasome activation (secreted IL-1β) [3]: dose-dependently inhibited

Structure (SMILES): CCCN(CCC)S(=O)(=O)c1ccc(N2CCC(CCCC(=O)O)CC2)cc1 [BT135, 4-(1-(4-(N,N-dipropylsulfamoyl)-phenyl)piperidin-4-yl)butanoic acid]
- NLRP1 (L18-MDP)-induced inflammasome activation (secreted IL-1β) [3]: dose-dependently inhibited

Source: patent US12577211B2, “Probenecid compounds for the treatment of inflammasome-mediated lung disease” (Bacainn Biotherapeutics, Ltd., priority 2020, dated 2026)
